# Experimental data as given in patent US4898878A, “Antioxidant thiohistidine compounds” (priority 1987, dated 1990).
# Columns and labels:
# ovoperoxidase = ovoperoxidase (Strongylocentrotus purpuratus, UniProt O44391); assay: CN--resistant NAD(P)H-O2 oxidoreductase (oxidase) activity of ovoperoxidase, thiol cofactor; format: biochemical; details: for cofactor for the CN--resistant oxidase reaction: in place of ovothiol
# Method: NAD(P)H--02 oxidoreductase activity was measured by following the oxidation of reduced pyridine nucleotides spectrophotometrically at 360 nm in a Gilford 420 spectrophotometer. The off-peak wavelength of 360 nm for reduced pyridine nucleotides allowed the use of higher concentrations in a 1.0 cm pathlength cuvette. Assays were conducted in a 1 ml volume containing 50 mM NaCl, 20mM Hepes, 20 mM Tris, at pH 8.0 and 25° C., to which was added for routine assays 0.4 mM NADH, 0.5 mM MnCl2, 1 mM NaCN, 134 nM ovoperoxidase, and the appropriate amount of ovothiol preparation. One unit of activity is defined as the amount of ovothiol needed to stimulate consumption of 1.0 nanomoles NADH/min. […] Assays were initiated with NADH unless otherwise specified.
# [1] = Non-enzymic direct reaction of thiol with H2O2; format: physicochemical; details: metal-free solutions containing EDTA; for second order rate constant for reaction with H2O2: non-enzymic
# Method: The non-enzymic reaction of OSH and H2 02 was measured and compared with GSH reacting with H2 02.
# These preliminary studies were done in metal-free solutions containing EDTA, so additional experiments can compare the effect of ions of Fe, Mn, and Cu, as well as certain liganded derivatives such as hematin and vitamin B12, on the reaction. […] Oxidation of ovothiol can be monitored by its absorbance change at 310 nm (Turner et al., 1986) and glutathione by coupling the reaction to glutathione reductase and NADPH oxidation.
# [2] = test system: xanthine/xanthine oxidase system; details: cited from earlier work
# [3] = Trapping of tyrosyl radicals: photochemical dityrosine formation
# Description: The known photochemical crosslinking of tyrosine (Amado, R., et al., Methods Enzymol. 107:377, 1984; Malencik, D. A., and S. R. Anderson, Biochem. 26:695, 1987; Joschek, H.-I., and S. I. Miller, J. Am. Chem. Soc. 88:3273, 1986) may be used as an assay for tyrosyl radical scavenging ability. This reaction proceeds by photochemical excitation of tyrosine, followed by an ejection of an electron to yield a tyrosyl radical. The ejected electron is apparently scavenged by oxygen, as evidenced by the augmentation of the tyrosine crosslinking rate on addition of SOD (scavenging 02^.-, thus slowing the back reaction of tyrosyl radical and 02^.- to yield tyrosine and 02). The tyrosyl radicals couple with one another to yield dityrosine, which is detected by its characteristic fluorescence. […] This is strong evidence that ovothiol can act as an efficient tyrosyl radical scavenger. This assay is mechanistically relatively simple technique for assaying antioxidants.
# [4] = Inhibition of pyrogallol autooxidation
# Description: The inhibition of the air oxidation of pyrogallol has been used previously as an assay for superoxide dismutase (SOD) (Marklund, S., and G. Marklund, Eur. J. Biochem. 47:469, 1974; Roth, E. F. Jr., and H. S. Gilbert, Anal. Biochem. 137:50, 1984).
# sea urchin eggs [5] = assay: Toxicity to sea urchin eggs (inhibition of first cellular division after fertilization); format: cell-based; details: administered as the disulfide
# Description: This aspect of the screening program introduces additional complications. For example, certain thiols are toxic to cells (Heinecke, J. W., et al., J. Biol. Chem. 262, 1987; Issels, R., et al., in Superoxide and Superoxide Dismutase in Chemistry, Biology, and Medicine, ed. G. Rotilio, pp. 419-421, Elsevier, N.Y., 1986) because they can autooxidize and produce reactive oxygen intermediates (Misra, H. R., J. Biol. Chem. 249:2151-2155,1974). Thiol toxicity may be due to redox cycling; for example, when cystine is given to cells it damages lipoproteins, apparently by being reduced to cysteine intracellularly then exiting to reoxidize and produce oxygen radicals and cellular damage. When we administered compound H3 (containing the reactive 4-mercaptoimidazole ring without the amino acid side chain) to sea urchin eggs, it was toxic at 2 mM but not at 200 μM (as assessed inhibition of the first cellular division after fertilization). […] We tried compound H3 because we thought it would be permeant, having no charged side chain; we administered it to these cells as the disulfide. We infer that the toxicity was caused by redox cycling, with H3 being taken up, reduced, and the thiol being reoxidized extracellularly to produce reactive oxygen intermediates. […]
# [6] = Reduction of Fremy's salt nitroxide radical; details: pH 7.0
# Description: Fremy's salt (K^+- 03 SN(0^.)SO3^- K^+) is a stable, commercially available nitroxide radical. Reduction of this radical can be followed by UV or ESR. […] In this assay, a relatively large difference was seen between two aromatic thiols, H3 and thiophenol.
# cultured myoblasts = assay: Toxicity to cultured myoblasts (colony formation, 3H-TdR incorporation); format: cell-based; details: administered as the disulfide
# [7] = test system: xanthine/xanthine oxidase system; assay: Xanthine oxidase-dependent oxyradical production, thiol oxidation; format: biochemical
# Description: Xanthine oxidase with both acetaldehyde and xanthine as substrates (both xanthine and its product uric acid react with OH^.) are used to determine whether the aromatic thiols or glutathione are oxidized by this reaction, or whether they inhibit cytochrome C reduction (McCord, J. M., and I. Fridovich, J. Biol. Chem. 244:6049-6054, 1969; Crapo, J. D., et al, Methods in Enzymology 530:382-386, 1977). For example, the ovothiol analogue H3 is oxidized by the xanthine/xanthine oxidase system, and that this can be suppressed by up to 50% by addition of SOD. Since GSH is protected only 20% by SOD in this assay (Wefers, H., and H. Sies, Europ. J. Biochem. 137:2936, 1983; Ross, D., et al., Biochem. Biophys. Acta 841:278, 1983), this implies a higher reactivity of 4-mercaptohistidines toward 02^.-. Differences between the reactions with acetaldehyde and xanthine will implicate OH^. in the process.
# [8] = Reduction of ovothiol disulfide (OSSO) by reduced glutathione; format: physicochemical
# Method: The redox potential of ovothiol was determined, as were the kinetics for its interaction with glutathione and H2 02. The mid-point potential (E^o') was estimated indirectly by determining the equilibrium in reaction with other known thiol-disulfide equilibria, since direct determination of (E^o') for thiols is typically complicated by artifacts. […] Appropriate corrections were made for the mixed disulfides present at different concentrations of ovothiol and glutathione. E^o' (30^o) for ovothiol was 44 mV positive relative to glutathione, or -0.196 V. Thus, the ΔG^o' for the reduction of ovothiol disulfide (OSSO) by reduced glutathione (GSH) is […], so that at equilibrium reduced ovothiol (OSH) predominates in a mixture of equimolar oxidized ovothiol (OSSO) and reduced glutathione (GSH). From a thermodynamic point of view, ovothiol can be maintained almost entirely in the reduced state by GSH, and thus by NADPH via glutathione reductase, without the need for a specific ovothiol reductase. […] Because reduced glutathione reduces ovothiol, a functional ovothiol reductase reaction exists by coupling reactions and [6]. The second order rate constant for ovothiol reduction by glutathione is 88M^-1 S^-1. We calculate that egg glutathione reductase is sufficient to produce 4.1 pmol GSH/min; with an egg GSH content of 0.9 pmol, it would take only 13 seconds for the egg to regenerate its entire GSH content from GSSG, if NADPH were present (which it is after fertilization). […] In other words, reduction of ovothiol is rapid at the concentrations of glutathione and ovothiol of the egg, and an enzymatic "ovothiol reductase" is not required to catalyze reaction.
# [9] = test system: fertilized sea urchin eggs; format: in vitro ADME
# Method: First, the conditions under which ovothiols A or C are transported into the cells of interest are determined using radioactive ovothiol derivatives. For example, by reacting ovothiol A with ^3 H-formaldehyde and reduction by NaBH4, ovothiol A was converted into ^3 H-ovothiol C. […] The km for OSH uptake appears to be higher than for histidines, although the Vmax may be similar. We measure the kinetics of ovothiol uptake into the cells to be studied, in order to identify optimal conditions for transport. We no only use ^3 H-ovothiol C but also synthesize ^3 H-ovothiol A by using ^14 C--HCHO in the abovedescribed chemical synthesis procedure.
# sea urchin eggs [10] = assay: First cell division of sea urchin eggs after iodoacetamide treatment; format: cell-based; details: for cell division: 0.25 mM iodoacetamide
# Description: The following biological experiment further implicates ovothiol in protection of eggs from H2 02 produced during the respiratory burst. If ovothiol were important in protection, then its absence should lead to embryonic lethality. […] However, iodoacetamide might have reacted with critical proteins (or other components) required for cell division, so that experiment was not definitive in implicating ovothiol. More recently, we added exogeneous catalase to eggs derivatized with iodoacetamide. Catalase should act as a second mechanism for removing H2 02 and partially compensate for the iodoacetamide treatment. The first cell division was blocked for eggs treated with 1.0 mM iodoacetamide prior to the respiratory burst (7% cleavage vs. 90% of control eggs). With catalase present during the respiratory burst, 70% of IAA-treated eggs divided (and 90% of the controls). Pretreatment with 0.25 mM iodoacetamide decreased cleavage to 75%; with exogenous 0.1 mM H2 02 added, cell division occurred in only 2% of these eggs, and with catalase present in 90%. Control eggs (not treated with iodoacetamide) were unaffected by 0.1 mM H2 02.
# [11] = Mid-point redox potential from equilibrium with glutathione thiol-disulfide; format: physicochemical; details: 30°
# Method: The redox potential of ovothiol was determined, as were the kinetics for its interaction with glutathione and H2 02. The mid-point potential (E^o') was estimated indirectly by determining the equilibrium in reaction with other known thiol-disulfide equilibria, since direct determination of (E^o') for thiols is typically complicated by artifacts. […] Appropriate corrections were made for the mixed disulfides present at different concentrations of ovothiol and glutathione. E^o' (30^o) for ovothiol was 44 mV positive relative to glutathione, or -0.196 V. Thus, the ΔG^o' for the reduction of ovothiol disulfide (OSSO) by reduced glutathione (GSH) is -0.386 kcal, so that at equilibrium reduced ovothiol (OSH) predominates in a mixture of equimolar oxidized ovothiol (OSSO) and reduced glutathione (GSH). From a thermodynamic point of view, ovothiol can be maintained almost entirely in the reduced state by GSH, and thus by NADPH via glutathione reductase, without the need for a specific ovothiol reductase. […] Because reduced glutathione reduces ovothiol, a functional ovothiol reductase reaction exists by coupling reactions and [6]. The second order rate constant for ovothiol reduction by glutathione is 88M^-1 S^-1. […]
# Sequence of ovoperoxidase (O44391 entry or part of it): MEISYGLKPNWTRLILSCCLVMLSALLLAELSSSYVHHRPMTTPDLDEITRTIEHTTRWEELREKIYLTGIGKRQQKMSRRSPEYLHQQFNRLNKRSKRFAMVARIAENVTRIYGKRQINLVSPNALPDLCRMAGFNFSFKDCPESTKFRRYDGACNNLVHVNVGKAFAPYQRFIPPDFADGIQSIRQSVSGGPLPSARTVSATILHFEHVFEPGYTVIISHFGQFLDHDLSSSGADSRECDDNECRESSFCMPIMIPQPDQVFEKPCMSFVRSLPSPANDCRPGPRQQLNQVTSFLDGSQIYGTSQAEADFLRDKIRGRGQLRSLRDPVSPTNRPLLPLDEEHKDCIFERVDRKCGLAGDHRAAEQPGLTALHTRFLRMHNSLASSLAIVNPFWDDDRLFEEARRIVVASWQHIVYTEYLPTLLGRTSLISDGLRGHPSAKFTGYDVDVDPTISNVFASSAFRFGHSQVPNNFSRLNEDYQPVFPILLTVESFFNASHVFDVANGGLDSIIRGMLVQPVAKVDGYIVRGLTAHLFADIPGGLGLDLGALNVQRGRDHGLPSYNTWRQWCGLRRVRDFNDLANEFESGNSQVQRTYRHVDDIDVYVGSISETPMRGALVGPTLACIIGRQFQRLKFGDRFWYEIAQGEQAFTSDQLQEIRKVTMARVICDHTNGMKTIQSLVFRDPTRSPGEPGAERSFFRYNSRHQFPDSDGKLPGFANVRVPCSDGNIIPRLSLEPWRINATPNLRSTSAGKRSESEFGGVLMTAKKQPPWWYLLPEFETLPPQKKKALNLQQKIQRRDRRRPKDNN
molecule,measurement,setting,value
CC(C)(COP(=O)(O)OP(=O)(O)OC[C@H]1O[C@@H](n2cnc3c(N)ncnc32)[C@H](O)[C@@H]1OP(=O)(O)O)[C@@H](O)C(=O)NCCC(=O)NCCS [Coenzyme A],cofactor for the CN--resistant oxidase reaction,ovoperoxidase,could not be replaced by
"N[C@@H](CCC(=O)N[C@@H](CS)C(=O)NCC(=O)O)C(=O)O [GSH, glutathione]",second order rate constant for reaction with H2O2,[1],1.5 M^-1 S^-1
same,cofactor for the CN--resistant oxidase reaction,ovoperoxidase,could not be replaced by
same,protection by SOD in this assay,[2],20%
same,inhibition of photochemical dityrosine formation,[3],at least an order of magnitude less effective
same,"concentration needed for effect, relative to H3",[4],50 fold
same,effect on air oxidation of pyrogallol,[4],more modest inhibitory effect
"Cc1c(S)ncn1C [H3, 1,5-dimethyl-4-mercaptoimidazole]",toxicity to sea urchin eggs at 200 μM,sea urchin eggs [5]; 200 μM,not
same,toxicity to sea urchin eggs at 2 mM,sea urchin eggs [5]; 2 mM,toxic
same,inhibition of photochemical dityrosine formation,[3],strong inhibitor
same,effect on dityrosine formation at 1 μM,[3]; 1 μM,slowing the reaction for several minutes
same,effect on air oxidation of pyrogallol,[4],induces a time lag
same,rate of reduction of Fremy's salt relative to glutathione,[6],~40 fold
same,rate of reduction of Fremy's salt relative to thiophenol,[6],roughly ten-fold faster
same,"rate of reduction of Fremy's salt, rank",[6],fastest radical scavenger
same,colony formation of cultured myoblasts,cultured myoblasts; 200 μM,inhibited colony formation
same,IC50,"cultured myoblasts; Myoblast, cultured myoblasts, read-out: half-maximal effect on 3H-TdR incorporation",15 µM
same,oxidation by the xanthine/xanthine oxidase system,[7],is oxidized
same,suppression of oxidation by addition of SOD,[7]; xanthine/xanthine oxidase,up to 50%
CN(C)[C@@H](Cc1c(SSc2ncn(C)c2C[C@@H](C(=O)O)N(C)C)ncn1C)C(=O)O [OSSO],ΔG°' for reduction of ovothiol disulfide (OSSO) by reduced glutathione (GSH),[8],-0.386 kcal
same,t1/2 for reduction of OSSO to OSH,[8]; normal cellular GSH levels,1.6 s
N[C@@H](CS)C(=O)O [cysteine],cofactor for the CN--resistant oxidase reaction,ovoperoxidase,could not be replaced by
C[N+](C)(C)[C@@H](Cc1c[nH]c(=S)[nH]1)C(=O)[O-] [ergothioneine],cofactor for the CN--resistant oxidase reaction,ovoperoxidase,could not be replaced by
N[C@@H](Cc1c[nH]cn1)C(=O)O [histidine],uptake by fertilized sea urchin eggs,[9],38 fmol/egg/hr
NC(=O)CI [iodoacetamide],cell division,"sea urchin eggs [10]; 0.1 mM H2O2, catalase present",90%
same,cell division,sea urchin eggs [10]; exogenous 0.1 mM H2O2 added,2%
same,cleavage (first cell division),sea urchin eggs [10]; 1.0 mM iodoacetamide prior to respiratory burst,7%
same,eggs divided,"sea urchin eggs [10]; 1.0 mM iodoacetamide, catalase present during respiratory burst",70%
same,cleavage,sea urchin eggs [10]; pretreatment with 0.25 mM iodoacetamide,75%
"CN(C)[C@@H](Cc1c(S)ncn1C)C(=O)O [ovothiol C, 1-methyl-N^α N^α -dimethyl-4-thiolhistidine]",rate with H2O2 relative to reduced glutathione,[1],~2.3 fold
same,second order rate constant for reaction with H2O2,[1],3.34 M^-1 S^-1
same,second order rate constant for reaction with H2O2,[1]; listed as OSH,3.3 M^-1 S^-1
same,E°' mid-point potential,[11],-0.196 V
same,E°' relative to glutathione (positive),[11],44 mV
same,second order rate constant for ovothiol reduction by glutathione,[8],88 M^-1 S^-1
same,ovothiol concentration giving maximal oxidase activity,ovoperoxidase,1 mM
same,km for uptake compared with histidines,[9],higher
same,uptake by fertilized sea urchin eggs,[9],6 fmol/egg/hr
Sc1ccccc1 [thiophenol],effect on air oxidation of pyrogallol,[4],"similar, though not identical"
catalase,inhibition of the NAD(P)H oxidase activity of ovoperoxidase,ovoperoxidase,inhibited
superoxide dismutase,inhibition of the NAD(P)H oxidase activity of ovoperoxidase,ovoperoxidase,inhibited
